# Legend:
# PCB490-3 = tested on: PCB490-3 (human epithelioid sarcoma primary culture)
# Protocol: (§1)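 Roche open-access kinase inhibitor screen (223 compounds) on human epithelioid sarcoma primary cultures from three spatially distinct regions of tumor PCB490. 384-well plates, 72 h, CellTiter-Glo viability; IC50 by Hill curve fit. 100000 nM = no IC50 reached. Compound ids carry a plate-well prefix, which is stripped.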
# PCB490-4 = tested on: PCB490-4 (human epithelioid sarcoma primary culture)
# Protocol: as §1
# PCB490-5 = tested on: PCB490-5 (human epithelioid sarcoma primary culture)
# Protocol: as §1
SMILES,IC50 cell viability (PCB490-3) [µM],IC50 cell viability (PCB490-4) [µM],IC50 cell viability (PCB490-5) [µM]
CN=C1NC(=O)/C(=C/c2ccc3ncccc3c2)S1,> 100,> 100,> 100
Cn1c(=O)c(Oc2ccc(F)cc2F)cc2cnc(NC(CO)CO)nc21,> 100,15,8.58
COc1cc[nH]c1/C=C1\C(=O)Nc2ccc(F)c(I)c21,> 100,> 100,> 100
C[C@H](O)CNc1cc(-c2[nH]c3cccnc3c2-c2ccc(F)cc2)ccn1,> 100,> 100,> 100
Cn1cc(C2=C(c3ccccc3C(F)(F)F)C(=O)NC2=O)c2ccccc21,> 100,> 100,> 100
Nc1[nH]nc2nc(-c3cccs3)cc(C(F)(F)F)c12,> 100,> 100,> 100
Cn1c(=O)c(Oc2ccc(F)cc2F)cc2cnc(NC3CCC(O)CC3)nc21 (stereo unspecified),> 100,> 100,> 100
Cn1cc(C2=C(c3cn(CCCCN)c4ccccc34)C(=O)NC2=O)c2ccccc21,> 100,> 100,> 100
O=C1NC(=O)C(c2c[nH]c3ccccc23)=C1c1ccccc1,> 100,> 100,> 100
CC(=O)N[C@@H](Cc1ccc(OP(=O)(O)O)cc1)C(=O)N[C@H]1CCC(=O)N2CCC[C@@H](C(=O)NCc3cccc4ccccc34)N2C1=O,> 100,> 100,> 100
CN1CCN(CCc2cccc(C(=O)c3cnn(-c4ccc(F)cc4)c3N)c2)CC1,> 100,> 100,> 100
Cn1cc(C2=C(c3c([S+](C)[O-])n(C)c4ccccc34)C(=O)NC2=O)c2ccccc21 (stereo unspecified),> 100,> 100,> 100
Cn1cc(C2=C(c3cn(C)c4ccc(Cl)cc34)C(=O)NC2=O)c2ccccc21,> 100,> 100,> 100
CN(C)CC#Cc1cccc(C(=O)c2cnn(-c3ccc(F)cc3)c2N)c1,> 100,> 100,> 100
CCOc1ccccc1CCN=C1NC(=O)/C(=C/c2ccc3ncccc3c2)S1,> 100,> 100,> 100
Cn1cc(C2=C(c3cn(CCCCCO)c4ccccc34)C(=O)NC2=O)c2ccccc21,> 100,> 100,> 100
Cn1c(=O)c(Oc2ccc(F)cc2F)cc2cnc(NC3CCS(=O)(=O)CC3)nc21,> 100,> 100,> 100
COc1cccc(C(=O)c2sc(Nc3ccc(N4CCN(C(C)C)CC4)cc3)nc2N)c1,> 100,> 100,> 100
COc1ccc(N2Cc3cnc(Nc4ccccc4)nc3N([C@@H]3CC[C@@H](O)C3)C2=O)cc1,2.59,1.79,2.16
Cc1ccccc1C1=C(c2cn(C)c3ccccc23)C(=O)NC1=O,> 100,> 100,> 100
Nc1c(C(=O)c2cccc(CCS(N)(=O)=O)c2)cnn1-c1ccc(F)cc1,> 100,> 100,> 100
Nc1c(C(=O)c2cccc(C#CCO)c2)cnn1-c1ccc(F)cc1,> 100,> 100,> 100
